From paper PMC6910976 (ACS infectious diseases, 2019)

What was measured:
Experiment in all cases: UPLC-high resolution MS of intact protein
Type in all cases: binding
Settings in all cases: covalent; 2 uM enzyme, 50 uM drug, 25 mM Tris pH 8.0, 5 h, 20 °C
LdtA = target: T1, LdtA (Mycolicibacterium smegmatis, UniProt A0QY44)
T1 sequence (A0QY44 41-259): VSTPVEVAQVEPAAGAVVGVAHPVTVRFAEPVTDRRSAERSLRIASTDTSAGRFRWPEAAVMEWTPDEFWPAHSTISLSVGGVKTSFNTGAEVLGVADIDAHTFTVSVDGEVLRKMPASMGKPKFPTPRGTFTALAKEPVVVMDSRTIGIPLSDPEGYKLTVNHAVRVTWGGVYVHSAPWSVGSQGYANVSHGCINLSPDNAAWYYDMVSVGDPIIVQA

LdtF = target: T2, LdtF (Mycolicibacterium smegmatis, UniProt A0QS24)
T2 sequence (A0QS24 31-420): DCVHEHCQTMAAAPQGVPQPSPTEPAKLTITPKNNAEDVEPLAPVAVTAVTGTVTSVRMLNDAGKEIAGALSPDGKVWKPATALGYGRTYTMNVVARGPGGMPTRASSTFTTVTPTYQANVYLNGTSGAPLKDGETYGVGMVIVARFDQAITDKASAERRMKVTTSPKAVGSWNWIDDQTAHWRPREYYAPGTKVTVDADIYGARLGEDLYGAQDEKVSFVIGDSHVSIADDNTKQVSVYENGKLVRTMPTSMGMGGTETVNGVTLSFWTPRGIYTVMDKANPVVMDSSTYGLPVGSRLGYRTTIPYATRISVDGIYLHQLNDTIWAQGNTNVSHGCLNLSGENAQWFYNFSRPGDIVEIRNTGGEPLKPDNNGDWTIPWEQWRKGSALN

LdtB = target: T3, LdtB (Mycolicibacterium smegmatis, UniProt A0R1G6)
T3 sequence (A0R1G6 27-400): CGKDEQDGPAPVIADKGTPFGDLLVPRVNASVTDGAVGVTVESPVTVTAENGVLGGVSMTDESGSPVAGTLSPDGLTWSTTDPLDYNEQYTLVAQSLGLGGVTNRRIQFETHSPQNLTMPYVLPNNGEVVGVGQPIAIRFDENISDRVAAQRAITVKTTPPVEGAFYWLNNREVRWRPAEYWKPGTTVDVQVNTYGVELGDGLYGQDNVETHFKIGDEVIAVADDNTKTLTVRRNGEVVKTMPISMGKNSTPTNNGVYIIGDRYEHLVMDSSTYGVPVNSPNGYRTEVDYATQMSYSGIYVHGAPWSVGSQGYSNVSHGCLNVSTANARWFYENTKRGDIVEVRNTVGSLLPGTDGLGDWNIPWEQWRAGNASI

SMILES | UPLC-high resolution MS of intact protein (LdtA) | UPLC-high resolution MS of intact protein (LdtF) | UPLC-high resolution MS of intact protein (LdtB)
C[C@@H](O)[C@H]1C(=O)N2C(C(=O)O)=C([C@H]3CCCO3)S[C@H]12 [faropenem] | fully acylated by the (carba)penems faropenem, biapenem, doripenem, and meropenem | small amounts of apo-LdtF remained following incubation with biapenem, doripenem, and faropenem | fully acylated by the (carba)penems faropenem, biapenem, doripenem, and meropenem
C[C@@H](O)[C@H]1C(=O)N2C(C(=O)O)=C(S[C@@H]3CN[C@H](C(=O)N(C)C)C3)[C@H](C)[C@H]12 [meropenem] | fully acylated by the (carba)penems faropenem, biapenem, doripenem, and meropenem | only meropenem completely acylates LdtF under the same conditions | fully acylated by the (carba)penems faropenem, biapenem, doripenem, and meropenem
C[C@@H](O)[C@H]1C(=O)N2C(C(=O)[O-])=C(SC3Cn4cnc[n+]4C3)[C@H](C)[C@H]12 (stereo partly shown) [biapenem] | fully acylated by the (carba)penems faropenem, biapenem, doripenem, and meropenem | small amounts of apo-LdtF remained following incubation with biapenem, doripenem, and faropenem | fully acylated by the (carba)penems faropenem, biapenem, doripenem, and meropenem
C[C@@H](O)[C@H]1C(=O)N2C(C(=O)O)=C(S[C@@H]3CN[C@H](CNS(N)(=O)=O)C3)[C@H](C)[C@H]12 [doripenem] |  | small amounts of apo-LdtF remained following incubation with biapenem, doripenem, and faropenem | 
